Laboratory results taken from US20180244699A1, “1-HYDROXY-3H-2,1-BENZOXABOROLE DERIVATIVES AND THEIR USE AS MICROBIOCIDES” (Syngenta Participations AG, priority 2015, published 2018).

Tests used:
[1] = tested on: Mycosphaerella graminicola (Septoria tritici); test: Mycosphaerella graminicola (Septoria tritici) / liquid culture (Septoria blotch); format: cell-based; conditions: Zymoseptoria tritici, growth inhibition photometrically 4-5 days after application, compared to untreated control
Protocol: (§1) 18. Mycosphaerella graminicola (Septoria tritici)/Liquid Culture (Septoria Blotch) Conidia of the fungus from cryogenic storage are directly mixed into nutrient broth (PDB potato dextrose broth). After placing a (DMSO) solution of test compound into a microtiter plate (96-well format), the nutrient broth containing the fungal spores is added. The test plates are incubated at 24° C. and the inhibition of growth is determined photometrically 4-5 days after application.

[2] = tested on: Pythium ultimum; test: Pythium ultimum / liquid culture (seedling damping off); format: cell-based; conditions: Globisporangium ultimum, growth inhibition photometrically 2-3 days after application, compared to untreated control
Procedure, shortened: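 Fungal mycelia fragments and oospores from fresh liquid culture mixed into potato dextrose broth and added to DMSO solutions of test compound. Incubated at 24° C.; growth inhibition read photometrically 2-3 days after application.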

[3] = tested on: Glomerella lagenarium (Colletotrichum lagenarium); test: Glomerella lagenarium (Colletotrichum lagenarium) / liquid culture (anthracnose); format: cell-based; conditions: Colletotrichum orbiculare, growth inhibition photometrically 3-4 days after application, compared to untreated control
Protocol: as §1, with “3. Glomerella lagenarium (Colletotrichum lagenarium)/Liquid” for “18. Mycosphaerella graminicola (Septoria tritici)/Liquid”, “(Anthracnose)” for “(Septoria Blotch)”, “measured” for “determined”, “3-4” for “4-5”

[4] = tested on: Gaeumannomyces graminis; test: Gaeumannomyces graminis / liquid culture (take-all of cereals); format: cell-based; conditions: growth inhibition photometrically 4-5 days after application, compared to untreated control
Protocol: 6. Gaeumannomyces Graminis/Liquid Culture (Take-all of Cereals) Mycelial fragments of the fungus from cryogenic storage were directly mixed into nutrient broth (PDB potato dextrose broth). After placing a (DMSO) solution of test compound into a microtiter plate (96-well format), the nutrient broth containing the fungal spores is added. The test plates are incubated at 24° C. and the inhibition of growth is determined photometrically 4-5 days after application.

[5] = tested on: Monographella nivalis (Microdochium nivale); test: Monographella nivalis (Microdochium nivale) / liquid culture (foot rot cereals); format: cell-based; conditions: growth inhibition photometrically 4-5 days after application, compared to untreated control
Protocol: as §1, with “8. Monographella nivalis (Microdochium nivale)/Liquid” for “18. Mycosphaerella graminicola (Septoria tritici)/Liquid”, “(Foot Rot Cereals)” for “(Septoria Blotch)”

[6] = tested on: Sclerotinia sclerotiorum; test: Sclerotinia sclerotiorum / liquid culture (cottony rot); format: cell-based; conditions: growth inhibition photometrically 3-4 days after application, compared to untreated control
Protocol: 17. Sclerotinia sclerotiorum/Liquid Culture (Cottony Rot) Mycelia fragments of a newly grown liquid culture of the fungus are directly mixed into nutrient broth (PDB potato dextrose broth). After placing a (DMSO) solution of test compound into a microtiter plate (96-well format) the nutrient broth containing the fungal material is added. The test plates are incubated at 24° C. and the inhibition of growth is determined photometrically 3-4 days after application.

[7] = tested on: Mycosphaerella arachidis (Cercospora arachidicola); test: Mycosphaerella arachidis (Cercospora arachidicola) / liquid culture (early leaf spot); format: cell-based; conditions: growth inhibition photometrically 4-5 days after application, compared to untreated control
Protocol: as §1, with “9.” for “18.”, “arachidis (Cercospora arachidicola)/Liquid” for “graminicola (Septoria tritici)/Liquid”, “(Early Leaf Spot)” for “(Septoria Blotch)”

[8] = tested on: Thanatephorus cucumeris (Rhizoctonia solani); test: Thanatephorus cucumeris (Rhizoctonia solani) / liquid culture (foot rot, damping-off); format: cell-based; conditions: growth inhibition photometrically 3-4 days after application, compared to untreated control
Protocol: 16. Thanatephorus cucumeris (Rhizoctonia solani)/Liquid Culture (Foot Rot, Damping-Off) Mycelia fragments of a newly grown liquid culture of the fungus are directly mixed into nutrient broth (PDB potato dextrose broth). After placing a (DMSO) solution of the test compounds into a microtiter plate (96-well format), the nutrient broth containing the fungal material is added. The test plates are incubated at 24° C. and the inhibition of growth is determined photometrically 3-4 days after application.

[9] = tested on: Puccinia recondite f. sp. tritici; test: Puccinia recondite f. sp. tritici / wheat / leaf disc preventative (brown rust); format: in vivo; conditions: foliar, wheat leaf segments, inoculated 1 day after application, compared to untreated control
Protocol: 13. Puccinia recondite f. Sp. Tritici/Wheat/Leaf Disc Preventative (Brown Rust) Wheat leaf segments cv. Kanzler are placed on agar in multiwell plates (24-well format) and sprayed with the formulated test compound diluted in water. The leaf disks are inoculated with a spore suspension of the fungus 1 day after application. The inoculated leaf segments are incubated at 19° C. and 75% rh under a light regime of 12 h light/12 h darkness in a climate cabinet and the activity of a compound is assessed as percent disease control compared to untreated when an appropriate level of disease damage appears in untreated check leaf segments (7-9 days after application).

CCOc1c(C(=O)OC)ccc2c1B(O)OC2 [Compound 4, methyl 7-ethoxy-1-hydroxy-3H-2,1-benzoxaborole-6-carboxylate]
≥ 80%: inhibition of growth at 20 ppm [1] | inhibition of growth at 20 ppm [2] | inhibition of growth at 20 ppm [3] | inhibition of growth at 20 ppm [4] | inhibition of growth at 20 ppm [5] | inhibition of growth at 20 ppm [6] | inhibition of growth at 20 ppm [7] | inhibition of growth at 20 ppm [8]

COc1c(C(=O)NCc2ccccc2F)ccc2c1B(O)OC2 [Compound 5, N-[(2-fluorophenyl)methyl]-1-hydroxy-7-methoxy-3H-2,1-benzoxaborole-6-carboxamide]
≥ 80%: pest or weed control at 200 ppm [9] | inhibition of growth at 20 ppm [2]

COc1c(C(=O)NCc2ccc(Cl)cc2)ccc2c1B(O)OC2 [Compound 6, N-[(4-chlorophenyl)methyl]-1-hydroxy-7-methoxy-3H-2,1-benzoxaborole-6-carboxamide]
≥ 80%: pest or weed control at 200 ppm [9] | inhibition of growth at 20 ppm [2] | inhibition of growth at 20 ppm [4] | inhibition of growth at 20 ppm [5]

COC(=O)c1ccc2c(c1OC(F)F)B(O)OC2 [Compound 16, methyl 7-(difluoromethoxy)-1-hydroxy-3H-2,1-benzoxaborole-6-carboxylate]
≥ 80%: inhibition of growth at 20 ppm [2] | inhibition of growth at 20 ppm [4] | inhibition of growth at 20 ppm [6] | inhibition of growth at 20 ppm [7]

COc1c(C(=O)NCCc2ccccc2)ccc2c1B(O)OC2 [Compound 33, 1-hydroxy-7-methoxy-N-phenethyl-3H-2,1-benzoxaborole-6-carboxamide]
≥ 80%: pest or weed control at 200 ppm [9] | inhibition of growth at 20 ppm [5]

COc1c(C(=O)NC(C)C)ccc2c1B(O)OC2 [Compound 34, 1-hydroxy-N-isopropyl-7-methoxy-3H-2,1-benzoxaborole-6-carboxamide]
≥ 80%: pest or weed control at 200 ppm [9] | inhibition of growth at 20 ppm [2]

COc1c(C(=O)Nc2cnoc2)ccc2c1B(O)OC2 [Compound 35, 1-hydroxy-N-isoxazol-4-yl-7-methoxy-3H-2,1-benzoxaborole-6-carboxamide]
≥ 80%: pest or weed control at 200 ppm [9] | inhibition of growth at 20 ppm [2]

COc1c(C(=O)Nc2nnc(C(F)(F)F)s2)ccc2c1B(O)OC2 [Compound 64, 1-hydroxy-7-methoxy-N-[5-(trifluoromethyl)-1,3,4-thiadiazol-2-yl]-3H-2,1-benzoxaborole-6-carboxamide]
≥ 80%: inhibition of growth at 20 ppm [2] | inhibition of growth at 20 ppm [3] | inhibition of growth at 20 ppm [4] | inhibition of growth at 20 ppm [5] | inhibition of growth at 20 ppm [6]

COC(=O)C#CCOC(=O)c1ccc2c(c1OC)B(O)OC2 [Compound 79, (4-methoxy-4-oxo-but-2-ynyl) 1-hydroxy-7-methoxy-3H-2,1-benzoxaborole-6-carboxylate]
≥ 80%: inhibition of growth at 20 ppm [1] | inhibition of growth at 20 ppm [2] | inhibition of growth at 20 ppm [3] | inhibition of growth at 20 ppm [4] | inhibition of growth at 20 ppm [5] | inhibition of growth at 20 ppm [6] | inhibition of growth at 20 ppm [7] | inhibition of growth at 20 ppm [8]

COc1c(C(=O)OCCc2scnc2C)ccc2c1B(O)OC2 [Compound 84, 2-(4-methylthiazol-5-yl)ethyl 1-hydroxy-7-methoxy-3H-2,1-benzoxaborole-6-carboxylate]
≥ 80%: inhibition of growth at 20 ppm [2] | inhibition of growth at 20 ppm [3] | inhibition of growth at 20 ppm [4] | inhibition of growth at 20 ppm [5] | inhibition of growth at 20 ppm [7]

CCN(CC)C(=O)COC(=O)c1ccc2c(c1OC)B(O)OC2 [Compound 94, [2-(diethylamino)-2-oxo-ethyl] 1-hydroxy-7-methoxy-3H-2,1-benzoxaborole-6-carboxylate]
≥ 80%: inhibition of growth at 20 ppm [1] | inhibition of growth at 20 ppm [2] | inhibition of growth at 20 ppm [3] | inhibition of growth at 20 ppm [4] | inhibition of growth at 20 ppm [5] | inhibition of growth at 20 ppm [6] | inhibition of growth at 20 ppm [7] | inhibition of growth at 20 ppm [8]

CCC1=NC(C)(COC(=O)c2ccc3c(c2OC)B(O)OC3)CO1 (stereo not shown) [Compound 99, (2-ethyl-4-methyl-5H-oxazol-4-yl)methyl 1-hydroxy-7-methoxy-3H-2,1-benzoxaborole-6-carboxylate]
≥ 80%: inhibition of growth at 20 ppm [1] | inhibition of growth at 20 ppm [2] | inhibition of growth at 20 ppm [3] | inhibition of growth at 20 ppm [4] | inhibition of growth at 20 ppm [5] | inhibition of growth at 20 ppm [6] | inhibition of growth at 20 ppm [7] | inhibition of growth at 20 ppm [8]

CC#CCCOC(=O)c1ccc2c(c1OC)B(O)OC2 [Compound 105, pent-3-ynyl 1-hydroxy-7-methoxy-3H-2,1-benzoxaborole-6-carboxylate]
≥ 80%: inhibition of growth at 20 ppm [1] | inhibition of growth at 20 ppm [2] | inhibition of growth at 20 ppm [3] | inhibition of growth at 20 ppm [4] | inhibition of growth at 20 ppm [5] | inhibition of growth at 20 ppm [7]

COc1cccc(C#CCOC(=O)c2ccc3c(c2OC)B(O)OC3)c1 [Compound 107, 3-(3-methoxyphenyl)prop-2-ynyl 1-hydroxy-7-methoxy-3H-2,1-benzoxaborole-6-carboxylate]
≥ 80%: inhibition of growth at 20 ppm [1] | inhibition of growth at 20 ppm [2] | inhibition of growth at 20 ppm [3] | inhibition of growth at 20 ppm [4] | inhibition of growth at 20 ppm [5] | inhibition of growth at 20 ppm [8]

COc1c(C(=O)OCCc2ccccc2)ccc2c1B(O)OC2 [Compound 110, phenethyl 1-hydroxy-7-methoxy-3H-2,1-benzoxaborole-6-carboxylate]
≥ 80%: inhibition of growth at 20 ppm [1] | inhibition of growth at 20 ppm [2] | inhibition of growth at 20 ppm [3] | inhibition of growth at 20 ppm [4] | inhibition of growth at 20 ppm [5] | inhibition of growth at 20 ppm [7]

COc1c(C(=O)OCCc2ccccc2F)ccc2c1B(O)OC2 [Compound 124, 2-(2-fluorophenyl)ethyl 1-hydroxy-7-methoxy-3H-2,1-benzoxaborole-6-carboxylate]
≥ 80%: inhibition of growth at 20 ppm [1] | inhibition of growth at 20 ppm [2] | inhibition of growth at 20 ppm [3] | inhibition of growth at 20 ppm [4] | inhibition of growth at 20 ppm [5] | inhibition of growth at 20 ppm [8]

COc1c(C(=O)OC(C)CCc2ccccc2)ccc2c1B(O)OC2 (stereo not shown) [Compound 130, (1-methyl-3-phenyl-propyl) 1-hydroxy-7-methoxy-3H-2,1-benzoxaborole-6-carboxylate]
≥ 80%: inhibition of growth at 20 ppm [1] | inhibition of growth at 20 ppm [2] | inhibition of growth at 20 ppm [3] | inhibition of growth at 20 ppm [4] | inhibition of growth at 20 ppm [5] | inhibition of growth at 20 ppm [8]

COc1c(C(=O)OCC#Cc2ccccc2)ccc2c1B(O)OC2 [Compound 132, 3-phenylprop-2-ynyl 1-hydroxy-7-methoxy-3H-2,1-benzoxaborole-6-carboxylate]
≥ 80%: inhibition of growth at 20 ppm [1] | pest or weed control at 200 ppm [9] | inhibition of growth at 20 ppm [2] | inhibition of growth at 20 ppm [3] | inhibition of growth at 20 ppm [4] | inhibition of growth at 20 ppm [5]
